Where two headings read alike, the source gives them in different places.
Key:
[1] = Cytotoxicity, MTT colorimetric test; format: cell-based, human; details: human
Description: (§1) Steroidal derivatives’ cytotoxicity regarding the HepG2-A16 cell line was evaluated by colorimetric test using 3-(4,5-dimethylthiazolyl-2)-2,5-diphenyltetrazolium bromide (MTT), as described by Mosmann [28]. […] An aliquot of each derivative dilution (100 μL, 1,000, 100, 10 and 1 μg/mL) was then added to the wells in triplicate. […] The DMSO diluent agent was evaluated in complete medium and negative controls (untreated cells) were included. Absorbance was measured at 550 nm and statistical Prism software version 5.0 (GraphPad Software Inc., La Jolla, CA, USA) was used for calculating toxic concentration (CC50). Amphotericin B was used as positive control in this assay.

[2] = test system: Plasmodium falciparum FCB-2 (chloroquine-resistant) strain; test: In vitro antiplasmodial activity, [3H]hypoxanthine incorporation, FCB-2 strain; format: cell-based; details: for antiplasmodial activity (in words): P. falciparum FCB-2 and NF-54 strains, compared to diosgenone or parent; for IC50: Plasmodium falciparum, 48 h; for RI (resistance index): IC50 FCB-2 (resistant strain)/IC50 NF-54 (sensitive strain)
Description: (§2) A 10 mg/mL stock solution was prepared. […] A 50 μL sample was extracted from this solution and adjusted to 1,000 μL with RPMI-1640 without hypoxanthine until a final 500 μg/mL concentration was reached. The P. falciparum FcB-2 (Colombia) and NF54 (The Netherlands) strains were used for assessing anti-malarial activity.
(§3) Trager and Jensen’s method was used for culturing strains [24, 25]. The methods described by Desjardins et al. [26] were used for evaluating the structural analogs’ in vitro antiplasmodial activity, with some modifications. […] 1.0 µCi/mL of [3H] hypoxanthine (MP Biomedicals, Santa Ana, CA, USA) was added to each well and the plates were then incubated for 48 h at 37 °C in 5% CO2, 5% O2 in a balanced N2 atmosphere. Parasite DNA was harvested and radioactivity was determined by automatic TDCR liquid scintillation counter plate (Chameleon, Hidex Oy, Finland). Experiments were repeated twice with two or three replicates each. A nonlinear regression sigmoidal dose-response (variable slope) model was used to estimate concentration inhibiting 50% growth (IC50) values for each derivative.

[3] = test system: Plasmodium falciparum NF-54 strain; test: In vitro antiplasmodial activity, [3H]hypoxanthine incorporation, NF-54 strain; format: cell-based; details: 48 h, read-out: IC50 μM ± SD NF-54
Description: as §2, §3

[4] = test system: HepG2-A16 human hepatoma cells; test: Cytotoxicity, MTT colorimetric test; format: cell-based; details: for SI (selectivity index): CC50 HepG2/IC50 parasite FCB-2
Description: as §1

[5] = HepG2-A16 human hepatoma cells, HepG2-A16 cells, MTT, 48 h, read-out: CC50
[6] = P. falciparum FCB-2 chloroquine-resistant strain, read-out: IC50 μM ± SD FCB-2
[7] = P. falciparum NF-54 chloroquine-sensitive strain
[8] = HepG2-A16 cells, MTT, 48 h, read-out: CC50

SMILES | CC50 at 48 h [1, 5] [µM] | antiplasmodial activity (in words) [2] | IC50 [2, 6] [µM] | IC50 [3, 7] [µM] | CC50 at 48 h [1, 8] [µM] | RI (resistance index) [2] | SI (selectivity index) [4] | IC50 ([2]; read-out: IC50 μM ± SD FCB-2, P. falciparum FCB-2 chloroquine-resistant strain, 48 h) [µM] | IC50 [3] [µM] | cytotoxicity (in words) ([4]; HepG2-A16 cells) | cytotoxicity (in words) [4] | CC50 at 48 h [1] [µM]
C[C@@H]1[C@H](O)[C@@H](C)/C=C/C=C/C=C/C=C/C=C/C=C/C=C/[C@H](O[C@@H]2O[C@H](C)[C@@H](O)[C@H](N)[C@@H]2O)C[C@@H]2O[C@](O)(C[C@@H](O)C[C@@H](O)[C@H](O)CC[C@@H](O)C[C@@H](O)CC(=O)O[C@H]1C)C[C@H](O)[C@H]2C(=O)O [AF-B, amphotericin B, reference compound] | 39.6 |  |  |  |  |  |  |  |  |  |  | 
C[C@@H]1CC[C@@]2(OC1)O[C@H]1C[C@H]3[C@@H]4CC=C5C[C@@H](O)CC[C@]5(C)[C@H]4CC[C@]3(C)[C@H]1[C@@H]2C [Compound 1, (25R)-5-spirosten-3β-ol, reference compound] |  | lacked antiplasmodial activity | > 482 | > 482 | 1110 |  |  |  |  |  |  | 
CC(=O)[C@H]1CC[C@H]2[C@@H]3CCC4=CC(=O)CC[C@]4(C)[C@H]3CC[C@]12C [Compound 5, 4-Pregnene-3,20-dione, reference compound] |  | displayed antiplasmodial activity | 38.2 ± 1.2 | 25.4 ± 1.6 | 193 | 1.5 | 5.0 |  |  |  |  | 
CC(=O)[C@@]1(O)CC[C@H]2[C@@H]3CCC4=CC(=O)CC[C@]4(C)[C@H]3CC[C@@]21C [Compound 6, 17-hydroxy-4-pregnene-3,20-dione, reference compound] | > 1140 | inactive |  |  |  | 1.0 |  | > 303 | > 303 |  |  | 
C[C@@H]1CC[C@@]2(OC1)O[C@H]1C[C@H]3[C@@H]4CCC5CC(=O)CC[C@]5(C)[C@H]4CC[C@]3(C)[C@H]1[C@@H]2C (stereo partly drawn) [Compound 11, (25R)-Spirostan-3-one] | > 916 | inactive against both P. falciparum strains | > 482 | > 482 |  |  |  |  |  |  |  | 
C[C@@H]1CC[C@@]2(OC1)O[C@H]1C[C@H]3[C@@H]4CCC5=CC(O)CC[C@]5(C)[C@H]4CC[C@]3(C)[C@H]1[C@@H]2C (stereo partly drawn) [Compound 13, (25R)-4-Spirosten-3-ol] | > 2410 | marginal activity compared to diosgenone | 63.2 ± 0.3 | 71.9 ± 0.3 |  | 0.9 |  |  |  |  |  | 
C[C@@H]1CC[C@@]2(OC1)O[C@H]1C[C@H]3[C@@H]4CC=C5C=CCC[C@]5(C)[C@H]4CC[C@]3(C)[C@H]1[C@@H]2C [Compound 19, (25R)-3,5-Spirostadiene] | > 2520 | neither active | 438 ± 12 | 370 ± 8.3 |  | 1.2 |  |  |  | nor toxic |  | 
CC(=O)O[C@H]1CC[C@@]2(C)C(=CCC3C4C[C@H](OC(C)=O)C(C(C)C5=C(C(C)=O)C[C@@H](C)CO5)[C@@]4(C)CCC32)C1 (stereo partly drawn) [Compound 20, (25R)-23-Acetyl-3,16-diacetoxy-22,23-pyran-cholesta-5,22-diene] |  | neither active | > 380 | > 380 |  |  |  |  |  |  | nor toxic | > 1900
CC(=O)OC1C[C@H]2[C@@H]3CCC4=CC(=O)CC[C@]4(C)[C@H]3CC[C@]2(C)[C@H]1[C@H](C)C(=O)CC[C@@H](C)C=O (stereo partly drawn) [Compound 21, (25R)-16-Acetoxy-4-cholesten-3,22-dione-26-al] |  |  | 92.2 ± 12.3 | 70.8 ± 0.8 |  | 1.3 | 4.6 |  |  |  |  | 424
CC(=O)OC1C[C@H]2[C@@H]3CCC4CC(=O)CC[C@]4(C)[C@H]3CC[C@]2(C)[C@H]1[C@H](C)C(=O)CC[C@@H](C)CO (stereo partly drawn) [Compound 22, (25R)-16-Acetoxy-26-hydroxy-cholestan-3,22-dione] |  |  | 94.2 ± 5.3 | 62.1 ± 8.9 |  | 1.5 | 0.9 |  |  |  |  | 82.4

From article PMC6270258, “Diosgenone Synthesis, Anti-Malarial Activity and QSAR of Analogues of This Natural Product” (Molecules, 2013)
